Calls of active or inactive are those of the source.
What was measured:
[1] = Luminescence Cell-Based Dose Retest to Confirm Inhibitors of Cancer Stem Cells. [Related pubchem assays (depositor defined):AID2717, AID2721]; assay type: functional; conditions: Homo sapiens
[2] = cytotoxicity in HPDE-C7 cells, cell-based, fluorescence, HTS (AID 430); assay type: functional; conditions: Homo sapiens
[3] = cytotoxicity in KRAS-transformed pancreatic duct cells, primary screen, cell-based, fluorescence, HTS (AID 431); assay type: functional; conditions: Homo sapiens;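 note: cell line used: HPDE-C7K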
fMet-Leu-Phe receptor = target: T1, fMet-Leu-Phe receptor (Homo sapiens, UniProt P21462); assay: FPR ligands, dose response (AID 519); assay type: functional
T1 sequence (P21462 whole entry): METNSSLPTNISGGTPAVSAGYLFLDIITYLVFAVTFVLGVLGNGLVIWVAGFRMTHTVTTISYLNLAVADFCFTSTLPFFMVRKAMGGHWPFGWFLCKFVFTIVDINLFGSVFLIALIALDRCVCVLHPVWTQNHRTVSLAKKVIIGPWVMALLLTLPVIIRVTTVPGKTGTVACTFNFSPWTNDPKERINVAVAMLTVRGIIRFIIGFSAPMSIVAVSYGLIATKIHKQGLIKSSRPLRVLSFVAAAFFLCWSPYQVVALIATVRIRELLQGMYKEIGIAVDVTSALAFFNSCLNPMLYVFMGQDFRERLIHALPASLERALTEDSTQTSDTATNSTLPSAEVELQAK

cells = assay type: functional
[4] = Vero E6 cell cytotoxicity, dose response, cytotoxicity control for non-replicating M. tuberculosis project, secondary assay (AID 492998); assay type: functional, VeroE6; conditions: Vero C1008
[5] = THP-1 cell cytotoxicity, dose response, cytotoxicity control for non-replicating M. tuberculosis project (AID 489025); assay type: functional
[6] = HepG2 cell cytotoxicity, dose response, cytotoxicity control for non-replicating M. tuberculosis project (AID 489018); assay type: functional; conditions: Mycobacterium tuberculosis
Cytochrome P450 3A4 = Cytochrome P450 3A4 (Homo sapiens, UniProt P08684);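 note: CYP3A4 tested as one member of a cytochrome P450 panel screen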
Cytochrome P450 2C19 = Cytochrome P450 2C19 (Homo sapiens, UniProt P33261); assay: Cytochrome panel assay with activity outcomes. Panel member name: p450-cyp2c19 Compounds with AC50 equal or less than 10 uM are considered active; assay type: functional; conditions: read-out: AC50
Nonstructural protein 1 = Nonstructural protein 1 (Influenza A virus, UniProt Q194T2); assay type: functional, Influenza A virus (A/California/07/2009(H1N1))
[7] = target: T2, RNA-binding protein pos-1 (Caenorhabditis elegans, UniProt G5EF15); assay: inhibitors of POS-1/mex-3 RNA binding, dose response, biochemical, fluorescence polarization (AID 1964);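 note: purified POS-1 fused to maltose binding protein made in E. coli; potency of compounds blocking POS-1 binding to fluorescent RNA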
T2 sequence (G5EF15 whole entry): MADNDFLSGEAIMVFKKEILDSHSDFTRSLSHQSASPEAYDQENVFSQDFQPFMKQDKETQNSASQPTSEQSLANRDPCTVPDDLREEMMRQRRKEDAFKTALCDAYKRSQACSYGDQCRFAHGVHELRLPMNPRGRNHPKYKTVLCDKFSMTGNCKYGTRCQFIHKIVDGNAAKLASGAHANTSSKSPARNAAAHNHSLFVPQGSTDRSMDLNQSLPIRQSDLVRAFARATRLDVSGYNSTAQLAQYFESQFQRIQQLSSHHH

[8] = target: T3, Zinc finger protein mex-5 (Caenorhabditis elegans, UniProt Q9XUB2); assay: MEX-5/TCR-2 RNA interaction inhibitors, dose response, biochemical, C. elegans, fluorescence polarization (AID 1960)
T3 sequence (Q9XUB2 whole entry): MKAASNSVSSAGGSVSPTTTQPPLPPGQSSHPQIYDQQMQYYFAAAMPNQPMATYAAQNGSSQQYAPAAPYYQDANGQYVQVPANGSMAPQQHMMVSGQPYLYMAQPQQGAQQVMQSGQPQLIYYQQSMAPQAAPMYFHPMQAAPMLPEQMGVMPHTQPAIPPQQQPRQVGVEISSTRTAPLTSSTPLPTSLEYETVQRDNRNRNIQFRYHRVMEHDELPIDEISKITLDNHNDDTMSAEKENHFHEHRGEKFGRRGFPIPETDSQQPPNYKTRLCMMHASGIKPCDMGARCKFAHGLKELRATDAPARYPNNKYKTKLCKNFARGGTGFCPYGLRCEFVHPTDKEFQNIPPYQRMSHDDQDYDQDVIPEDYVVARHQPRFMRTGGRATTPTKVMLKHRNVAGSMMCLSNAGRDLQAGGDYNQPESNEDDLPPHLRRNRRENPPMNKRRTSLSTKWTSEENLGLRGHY

Aminopeptidase N = target: T4, Aminopeptidase N (Plasmodium falciparum FcB1/Columbia, UniProt O96935); assay: P. falciparum M1AAP inhibitors, biochemical, fluorogenic H-Leu-NHMec substrate, 1536-well (AID 1445); parameters: species or system Plasmodium falciparum 3D7, 3D7
T4 sequence (O96935 whole entry): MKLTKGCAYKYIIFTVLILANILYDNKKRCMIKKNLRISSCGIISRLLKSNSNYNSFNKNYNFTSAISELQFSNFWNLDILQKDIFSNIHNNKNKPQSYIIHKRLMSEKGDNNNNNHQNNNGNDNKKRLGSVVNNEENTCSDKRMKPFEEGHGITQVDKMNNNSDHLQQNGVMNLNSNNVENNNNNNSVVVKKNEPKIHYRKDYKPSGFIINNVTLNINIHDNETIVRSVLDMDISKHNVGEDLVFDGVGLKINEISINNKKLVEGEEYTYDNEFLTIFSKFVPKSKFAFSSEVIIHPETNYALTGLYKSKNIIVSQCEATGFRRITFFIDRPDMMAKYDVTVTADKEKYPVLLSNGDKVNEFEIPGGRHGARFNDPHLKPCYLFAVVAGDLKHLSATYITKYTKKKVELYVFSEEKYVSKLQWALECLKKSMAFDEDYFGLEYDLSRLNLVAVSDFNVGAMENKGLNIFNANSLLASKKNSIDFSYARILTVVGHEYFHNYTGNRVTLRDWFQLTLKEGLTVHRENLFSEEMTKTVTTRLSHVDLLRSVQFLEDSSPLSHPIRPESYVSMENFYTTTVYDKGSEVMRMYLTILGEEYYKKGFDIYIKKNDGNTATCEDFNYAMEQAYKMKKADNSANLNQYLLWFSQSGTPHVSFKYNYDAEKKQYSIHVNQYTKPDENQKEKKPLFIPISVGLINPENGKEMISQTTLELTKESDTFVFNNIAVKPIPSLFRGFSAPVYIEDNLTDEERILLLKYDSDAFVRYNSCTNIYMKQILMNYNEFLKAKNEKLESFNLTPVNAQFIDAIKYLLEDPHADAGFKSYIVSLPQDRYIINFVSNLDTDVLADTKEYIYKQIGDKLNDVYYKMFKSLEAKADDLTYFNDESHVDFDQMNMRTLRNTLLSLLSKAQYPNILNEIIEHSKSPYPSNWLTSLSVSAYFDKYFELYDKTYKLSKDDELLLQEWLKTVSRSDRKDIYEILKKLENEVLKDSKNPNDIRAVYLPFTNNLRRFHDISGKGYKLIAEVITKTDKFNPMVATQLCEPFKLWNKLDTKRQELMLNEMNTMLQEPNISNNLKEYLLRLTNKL

[9] = target: G-protein coupled receptor 55 (Homo sapiens, UniProt Q9Y2T6); assay: GPR55 agonists via beta-arrestin recruitment, primary screen, imaging, U2OS cells, beta-arrestin-GFP redistribution (AID 1961); assay type: functional
[10] = target: T5, Ubiquitin-conjugating enzyme E2 N (Homo sapiens, UniProt P61088); assay type: functional;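 note: Dose-response confirmation in a TR-FRET assay detecting UBC13-driven polyubiquitin chain formation, inhibition measured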
T5 sequence (P61088 whole entry): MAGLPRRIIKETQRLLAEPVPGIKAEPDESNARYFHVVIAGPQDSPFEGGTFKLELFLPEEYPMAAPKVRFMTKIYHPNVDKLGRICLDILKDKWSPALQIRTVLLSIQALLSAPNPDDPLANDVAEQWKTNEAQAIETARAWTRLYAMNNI

Beta-galactosidase = Beta-galactosidase (Escherichia coli, UniProt Q8VNN2); assay: beta-galactosidase enzyme inhibitors and activators, dose response, artefact control for CCR6 antagonist project, biochemical, E. coli enzyme, set 3 (AID 504712); assay type: functional
[11] = target: T6, Polyadenylate-binding protein 1 (Homo sapiens, UniProt P11940); assay: PABP1 MLLE–PAM2 binding inhibitor potency, dose response, biochemical, fluorescence polarization, FITC-PAM2 peptide (AID 602259); assay type: functional; conditions: read-out: IC50_Mean
[12] = target: T6, Polyadenylate-binding protein 1; assay: PABP1 MLLE–PAM2 interaction inhibitors, dose response, miRNA deadenylation inhibitor project, biochemical, fluorescence polarization, Cy5-PAM2 peptide, secondary (AID 602260); assay type: functional; conditions: read-out: IC50_Mean
Paired box protein Pax-8 = Paired box protein Pax-8 (Homo sapiens, UniProt Q06710); assay: inhibitors of PAX8-driven TPO luciferase reporter, dose response, RMG-I cells, cherry-pick (AID 687027); assay type: functional, cell-based;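 note: luciferase reporter driven by Pax8 target thyroperoxidase promoter measured by SteadyGlo luminescence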
[13] = target: Disintegrin and metalloproteinase domain-containing protein 17 (Homo sapiens, UniProt P78536); assay: ADAM17 protease inhibitors, dose response, counter-screen for ADAM10 exosite inhibitor project, biochemical, quenched FRET substrate (AID 743253)
[14] = Luminescence Cell-Based Dose Confirmation HTS to Identify Activators of 5'UTR Stem-Loop Driven Alpha-Synuclein mRNA Translation in H4 Neuroglioblastoma Cells. [Related pubchem assays: 1829 (Project Summary), 1814 (Primary HTS)]; assay type: functional
H4 = assay: Luminescence Cell-Based Dose Response HTS to Identify Activators of 5'UTR Stem-Loop Driven Prion Protein mRNA Translation in H4 Neuroglioblastoma Cells. [Related pubchem assays: 1829 (Project Summary), 1814 (Primary HTS)]; assay type: functional; conditions: Homo sapiens
[15] = Luminescence Cell-Based Dose Response HTS to Identify Activators of Luciferase Translation or Activity in H4 […] Cells. [Related pubchem assays: 1829 (Project Summary), 1814 (Primary HTS)]; assay type: functional
Protein Wnt-3a = Protein Wnt-3a (Mus musculus, UniProt P27467); assay: Wnt3a-driven reporter signaling inhibition, dose response, selectivity assay for Gli-SUFU antagonist project, Wnt-LIGHT cells, luminescence (AID 651570); assay type: functional; conditions: read-out: IC50_Mean;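 note: Wnt-LIGHT reporter cells stimulated with conditioned medium from Wnt3a-producing cells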
[16] = target: Voltage-gated N-type calcium channel alpha-1B subunit/Amyloid beta A4 precursor protein-binding family A member 1 (Homo sapiens, UniProt Q00975+Q02410); assay type: protein assay
Sequence of Voltage-gated N-type calcium channel alpha-1B subunit/Amyloid beta A4 precursor protein-binding family A member 1 (Q00975 whole entry): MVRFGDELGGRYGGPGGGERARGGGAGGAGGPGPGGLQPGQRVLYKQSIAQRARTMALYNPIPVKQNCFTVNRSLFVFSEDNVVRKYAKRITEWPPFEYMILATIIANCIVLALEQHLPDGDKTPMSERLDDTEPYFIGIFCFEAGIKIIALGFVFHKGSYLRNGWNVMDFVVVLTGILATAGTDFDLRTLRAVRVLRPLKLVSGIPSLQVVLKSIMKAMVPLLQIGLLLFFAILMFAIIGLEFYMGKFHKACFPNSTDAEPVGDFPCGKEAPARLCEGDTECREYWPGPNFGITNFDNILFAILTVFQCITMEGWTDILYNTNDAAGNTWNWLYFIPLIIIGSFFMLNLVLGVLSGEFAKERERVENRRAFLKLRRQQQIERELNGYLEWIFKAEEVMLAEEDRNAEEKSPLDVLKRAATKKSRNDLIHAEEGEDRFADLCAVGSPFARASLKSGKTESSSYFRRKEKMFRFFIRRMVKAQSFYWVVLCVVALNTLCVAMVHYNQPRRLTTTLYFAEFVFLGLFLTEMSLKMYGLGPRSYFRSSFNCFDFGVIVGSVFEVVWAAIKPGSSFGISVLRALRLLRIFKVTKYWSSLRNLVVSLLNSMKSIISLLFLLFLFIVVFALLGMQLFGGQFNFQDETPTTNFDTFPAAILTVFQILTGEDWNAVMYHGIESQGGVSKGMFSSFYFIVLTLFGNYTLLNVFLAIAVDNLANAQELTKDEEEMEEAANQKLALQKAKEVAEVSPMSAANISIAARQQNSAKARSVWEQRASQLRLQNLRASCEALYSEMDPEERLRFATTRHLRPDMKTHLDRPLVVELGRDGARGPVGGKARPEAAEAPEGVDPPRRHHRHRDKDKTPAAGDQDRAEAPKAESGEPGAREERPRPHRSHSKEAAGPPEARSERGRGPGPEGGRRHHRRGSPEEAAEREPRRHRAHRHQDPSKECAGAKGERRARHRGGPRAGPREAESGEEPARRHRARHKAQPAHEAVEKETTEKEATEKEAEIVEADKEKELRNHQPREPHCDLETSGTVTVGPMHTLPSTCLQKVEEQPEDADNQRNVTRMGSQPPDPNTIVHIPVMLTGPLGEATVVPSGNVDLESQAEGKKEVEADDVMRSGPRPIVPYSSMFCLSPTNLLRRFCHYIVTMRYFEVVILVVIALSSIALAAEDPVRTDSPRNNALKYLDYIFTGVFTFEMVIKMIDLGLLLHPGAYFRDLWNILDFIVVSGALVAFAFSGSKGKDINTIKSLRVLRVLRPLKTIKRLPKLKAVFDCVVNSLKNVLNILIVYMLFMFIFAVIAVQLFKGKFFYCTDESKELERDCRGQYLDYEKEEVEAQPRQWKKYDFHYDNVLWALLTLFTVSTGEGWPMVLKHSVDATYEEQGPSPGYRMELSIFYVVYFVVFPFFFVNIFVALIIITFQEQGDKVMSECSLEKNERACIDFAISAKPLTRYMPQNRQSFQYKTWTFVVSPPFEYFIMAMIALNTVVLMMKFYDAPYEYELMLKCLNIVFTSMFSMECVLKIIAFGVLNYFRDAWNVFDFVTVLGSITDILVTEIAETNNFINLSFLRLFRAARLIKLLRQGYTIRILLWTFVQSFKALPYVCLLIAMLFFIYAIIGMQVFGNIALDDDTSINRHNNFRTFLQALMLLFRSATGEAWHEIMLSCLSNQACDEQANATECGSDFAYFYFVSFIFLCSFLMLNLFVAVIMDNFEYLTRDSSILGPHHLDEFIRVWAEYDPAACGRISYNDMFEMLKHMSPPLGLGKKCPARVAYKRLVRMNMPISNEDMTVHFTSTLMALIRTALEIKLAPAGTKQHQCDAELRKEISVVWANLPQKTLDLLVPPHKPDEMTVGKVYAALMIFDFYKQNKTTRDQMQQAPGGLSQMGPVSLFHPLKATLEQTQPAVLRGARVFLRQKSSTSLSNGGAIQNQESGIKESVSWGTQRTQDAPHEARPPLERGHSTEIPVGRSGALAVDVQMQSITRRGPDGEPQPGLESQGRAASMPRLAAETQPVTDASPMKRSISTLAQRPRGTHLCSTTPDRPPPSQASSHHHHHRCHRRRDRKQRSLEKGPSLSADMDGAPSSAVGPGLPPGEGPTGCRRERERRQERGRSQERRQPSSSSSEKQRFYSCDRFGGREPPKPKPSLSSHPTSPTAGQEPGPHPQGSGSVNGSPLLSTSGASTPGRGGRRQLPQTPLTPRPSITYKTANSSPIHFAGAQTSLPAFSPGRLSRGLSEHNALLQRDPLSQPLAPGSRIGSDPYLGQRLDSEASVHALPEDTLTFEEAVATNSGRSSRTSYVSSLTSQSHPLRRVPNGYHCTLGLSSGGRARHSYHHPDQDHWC
Sequence of Voltage-gated N-type calcium channel alpha-1B subunit/Amyloid beta A4 precursor protein-binding family A member 1 (Q02410 whole entry): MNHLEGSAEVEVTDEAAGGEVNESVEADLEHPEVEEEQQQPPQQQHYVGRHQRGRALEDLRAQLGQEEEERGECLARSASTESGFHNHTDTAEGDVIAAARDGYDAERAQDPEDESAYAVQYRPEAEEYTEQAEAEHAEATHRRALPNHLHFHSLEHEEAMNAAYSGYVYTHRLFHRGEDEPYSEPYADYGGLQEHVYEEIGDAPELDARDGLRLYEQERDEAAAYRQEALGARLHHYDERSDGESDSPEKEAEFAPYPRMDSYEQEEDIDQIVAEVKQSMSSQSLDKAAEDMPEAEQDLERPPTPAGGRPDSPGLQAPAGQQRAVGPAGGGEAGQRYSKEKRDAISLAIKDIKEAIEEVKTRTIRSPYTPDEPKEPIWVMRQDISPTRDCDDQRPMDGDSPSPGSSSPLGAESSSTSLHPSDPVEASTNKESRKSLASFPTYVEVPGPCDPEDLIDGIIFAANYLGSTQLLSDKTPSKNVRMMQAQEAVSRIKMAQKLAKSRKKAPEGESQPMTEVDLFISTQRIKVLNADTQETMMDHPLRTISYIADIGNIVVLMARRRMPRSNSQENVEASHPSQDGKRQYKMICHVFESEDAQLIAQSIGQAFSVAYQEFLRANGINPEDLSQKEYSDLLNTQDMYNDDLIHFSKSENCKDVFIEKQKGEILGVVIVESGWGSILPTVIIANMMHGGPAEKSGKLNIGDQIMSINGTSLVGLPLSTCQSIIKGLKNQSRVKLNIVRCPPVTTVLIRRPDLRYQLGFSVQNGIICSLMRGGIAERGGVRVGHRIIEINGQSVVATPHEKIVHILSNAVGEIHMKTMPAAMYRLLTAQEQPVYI

T6 sequence (P11940 whole entry): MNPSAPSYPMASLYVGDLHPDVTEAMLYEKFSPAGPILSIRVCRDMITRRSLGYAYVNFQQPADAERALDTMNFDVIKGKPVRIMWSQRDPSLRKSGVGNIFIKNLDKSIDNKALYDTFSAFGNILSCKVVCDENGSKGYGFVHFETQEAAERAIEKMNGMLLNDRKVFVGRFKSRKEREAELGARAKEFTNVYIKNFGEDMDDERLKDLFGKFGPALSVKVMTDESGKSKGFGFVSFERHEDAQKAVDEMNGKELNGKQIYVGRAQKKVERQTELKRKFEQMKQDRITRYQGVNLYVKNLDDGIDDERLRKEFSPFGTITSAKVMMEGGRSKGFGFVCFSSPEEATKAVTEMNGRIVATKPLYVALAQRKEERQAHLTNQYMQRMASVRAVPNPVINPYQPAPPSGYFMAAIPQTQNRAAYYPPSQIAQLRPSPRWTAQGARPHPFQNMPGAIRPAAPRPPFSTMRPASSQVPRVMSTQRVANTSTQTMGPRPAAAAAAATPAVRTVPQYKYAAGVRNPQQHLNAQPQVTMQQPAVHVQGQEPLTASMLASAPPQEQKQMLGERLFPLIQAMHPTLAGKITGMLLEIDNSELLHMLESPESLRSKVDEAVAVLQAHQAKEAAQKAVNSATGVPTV
Sequence of Cytochrome P450 3A4 (P08684 whole entry): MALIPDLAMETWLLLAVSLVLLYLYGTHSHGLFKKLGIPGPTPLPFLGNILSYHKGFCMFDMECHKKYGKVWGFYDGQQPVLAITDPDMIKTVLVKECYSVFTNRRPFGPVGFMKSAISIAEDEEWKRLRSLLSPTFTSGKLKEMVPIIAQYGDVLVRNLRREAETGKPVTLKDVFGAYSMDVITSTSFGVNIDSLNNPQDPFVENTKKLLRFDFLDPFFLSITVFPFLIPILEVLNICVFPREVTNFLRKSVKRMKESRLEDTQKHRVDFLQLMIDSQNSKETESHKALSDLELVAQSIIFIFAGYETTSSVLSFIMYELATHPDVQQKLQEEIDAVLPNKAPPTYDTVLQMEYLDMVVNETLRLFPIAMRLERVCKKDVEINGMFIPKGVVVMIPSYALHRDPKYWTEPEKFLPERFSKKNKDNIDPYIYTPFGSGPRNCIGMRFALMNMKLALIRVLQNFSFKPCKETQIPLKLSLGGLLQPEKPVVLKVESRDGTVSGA
Sequence of Paired box protein Pax-8 (Q06710 whole entry, the tested form may be a part): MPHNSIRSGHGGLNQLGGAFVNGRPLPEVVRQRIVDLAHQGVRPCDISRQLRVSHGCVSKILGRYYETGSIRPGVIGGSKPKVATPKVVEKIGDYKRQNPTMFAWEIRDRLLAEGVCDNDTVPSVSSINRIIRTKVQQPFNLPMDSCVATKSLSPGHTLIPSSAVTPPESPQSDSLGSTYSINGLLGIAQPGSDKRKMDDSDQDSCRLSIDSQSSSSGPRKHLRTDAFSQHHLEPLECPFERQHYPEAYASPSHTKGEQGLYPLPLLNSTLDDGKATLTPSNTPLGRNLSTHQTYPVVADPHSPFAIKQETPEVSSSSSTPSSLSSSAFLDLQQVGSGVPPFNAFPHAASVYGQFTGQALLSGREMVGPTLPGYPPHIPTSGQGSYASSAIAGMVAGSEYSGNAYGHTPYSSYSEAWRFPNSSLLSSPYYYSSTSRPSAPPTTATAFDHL
Sequence of Nonstructural protein 1 (Q194T2 whole entry, the tested form may be a part): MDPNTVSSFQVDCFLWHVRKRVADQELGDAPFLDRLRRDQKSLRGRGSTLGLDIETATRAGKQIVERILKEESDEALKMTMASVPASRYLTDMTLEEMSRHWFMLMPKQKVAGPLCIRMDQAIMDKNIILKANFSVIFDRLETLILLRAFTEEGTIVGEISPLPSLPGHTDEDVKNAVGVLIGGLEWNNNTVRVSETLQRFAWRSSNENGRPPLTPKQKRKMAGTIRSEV

## N#CC1=C(SCC(=O)c2ccc(Br)cc2)N=C2CCCC(O)=C2C1c1ccco1 (centres undefined)
[1]
  AC50: 2.13 µM (active)
[2]
  EC50: 4.34 µM (active)
[3]
  EC50: 5.58 µM (active)

## COC(=O)COc1ccc2c(=O)c(Oc3ccccc3)c(C)oc2c1
fMet-Leu-Phe receptor
  Ki: > 66.7 µM (inactive)
cells
  IC50: 2.94 µM (active)

## Cc1ccc(NC(=O)c2ccc([N+](=O)[O-])o2)c(C)c1
[4]
  CC50: 6.74 µM (active)
cells
  IC50: 3.46 µM (active)
[5]
  CC50: 15.4 µM (active)
[6]
  CC50: > 20 µM (active)

## CCN1C(=O)/C(=C2\SC(=S)N(CCCOC)C2=O)c2ccccc21
Cytochrome P450 3A4
  AC50: 3.55 µM (inconclusive)
fMet-Leu-Phe receptor
  Ki: > 66.7 µM (inactive)
Cytochrome P450 2C19
  AC50: 11.2 µM (inconclusive)
Nonstructural protein 1
  IC50: 62.7 µM (active)

## Oc1[nH]c2ccc(Br)cc2c1N=Nc1nn[nH]n1
[7]
  EC50: 14 µM (active)
[8]
  EC50: 5.18 µM (active)
Aminopeptidase N
  IC50: 26.5 µM (active)

## Cc1ccc(Cl)cc1N1CCN(C(=O)c2ccc(NS(=O)(=O)c3c(C)noc3C)cc2)CC1
[2]
  EC50: 13.2 µM (active)
[3]
  EC50: 16.7 µM (active)

## OCCNc1nc(O)c2c(ncn2Cc2ccccc2)n1
[9]
  EC50: > 32 µM (inactive)

## C=CCOc1ccc(C2C(C(=O)c3cccs3)=C(O)C(=O)N2c2nnc(C)s2)cc1 (centres undefined)
fMet-Leu-Phe receptor
  Ki: 40.5 µM (inactive)
[7]
  EC50: 10.8 µM (inconclusive)
[8]
  EC50: 3.06 µM (active)

## CCOc1cccc(C(=O)C2=C(O)C(=O)N(CCOC)C2c2ccc(C)o2)c1 (centres undefined)
fMet-Leu-Phe receptor
  Ki: 13.5 µM (active)

## CCC1(C)Nc2ccccc2C(=O)N1O (centres undefined)
[2]
  EC50: 17.1 µM (active)
[3]
  EC50: > 20 µM (not active)

## NC(=O)c1nsc(C(=O)N(c2ccc(F)cc2)C(C(=O)NCC2CCCO2)c2c[nH]c3ccccc23)c1N (centres undefined)
[10]
  IC50: > 20 µM (inactive)

## O=C(CSc1nccn1-c1ncc(C(F)(F)F)cc1Cl)c1ccc(Cl)cc1
Beta-galactosidase
  IC50: > 66.6 µM (inactive)

## Cc1ccc(/C=C2\SC(=S)N(c3c(C)n(C)n(-c4ccccc4)c3=O)C2=O)cc1
[11]
  IC50: > 66 µM (inactive)
[12]
  IC50: > 66 µM (inactive)
Aminopeptidase N
  IC50: 120 µM (active)

## O=c1[nH]c2ccccc2n1C1CCN(C(c2ccccc2OC(F)(F)F)c2nnnn2-c2ccc3c(c2)OCCO3)CC1 (centres undefined)
Paired box protein Pax-8
  AC50: 4.52 µM (active)
[13]
  IC50: > 69.5 µM (inactive)

## CCOC(=O)C1=C(N)n2c(s/c(=C\c3ccco3)c2=O)=C(C(=O)OCC)C1c1ccco1 (centres undefined)
Cytochrome P450 3A4
  AC50: 28.2 µM (inconclusive)
[14]
  EC50: > 120 µM (not active)
H4
  EC50: > 120 µM (not active)
[15]
  EC50: > 120 µM (not active)
[2]
  EC50: 1.47 µM (active)
[3]
  EC50: 1.19 µM (active)

## O=C(N[C@@H]1C/C=C\C[C@@H](CC(=O)N(CCO)Cc2ccccc2)C(=O)NCCOC1=O)OCC1c2ccccc2-c2ccccc21
Protein Wnt-3a
  IC50: 24.2 µM (inactive)

## O=C(CNC(=O)c1ccccc1Cl)N/N=C/c1ccc([N+](=O)[O-])s1
[4]
  CC50: 13.6 µM (active)
cells
  IC50: 36.6 µM (active)
[5]
  CC50: 25 µM (active)
[6]
  CC50: > 20 µM (active)

## NS(=O)(=O)c1ccc(N/N=C/c2ccc3c(c2)OCO3)c([N+](=O)[O-])c1
[16]
  IC50: 3.59 µM (active)

Source: ChEMBL document CHEMBL1201862, “PubChem BioAssay data set” (2004)
